# Earlier results in US20100160366A1, “TREATMENT METHOD” (Schering Corporation, priority 2000, published 2010).
# Key:
# allergic immune cells = allergic immune cells in vitro
smiles,measurement,setting,value
CCOC(=O)N1CCC(=C2c3ccc(Cl)cc3CCc3cccnc32)CC1 [loratadine],activity of eosinophils,eosinophils,inhibited
same,chemotaxis of eosinophils,eosinophils,inhibited
same,inflammatory cytokine IL-6,IL-6,inhibited
same,release of mast cell histamine,allergic immune cells,inhibit
same,release of the cysteinyl leukotriene LTC4,allergic immune cells,inhibit
same,activation of monocytes as measured by superoxide anion production,monocytes,reduced
same,adhesion molecule ICAM-1 expression,ICAM-1,reduced
